Measurements: patent US8236811B2, “Therapeutic use for treating of leukemia” (Sanofi, priority 2006, dated 2012)

What was measured:
Format in all cases: in vivo, Scid CB-17 mice
KG1a tumors (AML) = assay: Antitumor activity in mice bearing KG1a tumors (AML)
Description: (§1) Scid CB-17 mice (supplied by Charles River, Lyon, France) are used. At the time of the randomization, the animals have an average weight of 20-22 g and are aged from 6 to 9 weeks.
(§2) The day before the first administration of a compound, the animals bearing tumors are classified into several groups. Only animals bearing two tumors which are palpable or of determined weight are selected and distributed at random into the treated groups and control groups. Each group is made up of 5 to 10 mice. At the start of the study, each cage is labeled with a card indicating the day of implantation of the tumour, the type of tumour, the compound tested and the mode of administration.
(§3) The implantation of the tumors is effected as follows: after removal of the tumour from the donor mouse, the tumour is cut up into fragments 2 to 3 mm in diameter, placed in a saline phosphate buffer, and implanted bilaterally with an adapted trocar.
(§4) The volume of the tumors and its conversion into weight is estimated according to the formula: weight: (in mg)=(a×b^2)/2, where a and b are respectively the length and the width of the tumour (mm). The tumors are measured twice a week with calipers. In the following tables, P indicates the weight of the tumors at the start of treatment.
(§5) T is the median time in days for reaching a defined value (e.g. 1000 mg) in the treated group and C is the median time in days for reaching this same value in the control group. A value of log10 of the cells killed>0.7 is indicative of antitumor activity of the molecule. […] The median weight of the tumors of each treated group is then determined.
IV/IP is understood to mean administration by the intravenous route followed by an intraperitoneal route; here the transition is effected between day 15 and day 16. IV/oral is understood to mean administration by the intravenous route followed by an oral route; here the transition is effected between day 30 and day 31. […] On day 31, the compound is administered by the oral route until day 44.

KG1 tumours (AML) = assay: Antitumor activity in mice bearing KG1 tumours (AML)
Description: as §1, §2, §3, §4
Two parameters for estimation of antitumor activity are used: log10 of the cells killed (Log cell kill) and T/C. • Calculation of log10 of the cells killed=(T−C)/3.32×Td, where (T−C) is the delay in tumour growth and Td the volume (and weight) doubling time of the tumour (expressed in days). T is the median time in days for reaching a defined value (e.g. 1000 mg) in the treated group and C is the median time in days for reaching this same value in the control group. A value of log10 of the cells killed>0.7 is indicative of antitumor activity of the molecule. A value of log10 of the cells killed >2.8 is indicative of a very high antitumor activity of the molecule (J Liang et al, Invest New Drugs 2005; 23(3):213-24). • Calculation of T/C: the treated groups and the control groups are evaluated when the tumors of the control group reach approximately 1000 mg (median value of the group). The median weight of the tumors of each treated group is then determined. The T/C value ((weight of the tumors of the treated groups/weight of the tumors of the control groups)×100) in percent is an indication of the antitumor efficacy: a T/C value less than or equal to 42% is indicative of anti-tumour activity according to the American National Cancer Institute (NCI). A T/C value less than 10% is representative of very high anti-tumour activity. • The number of mice no longer displaying tumors a long time after the last administration (TFS=tumour-free survival), and considered as cured, can also constitute a parameter of activity of the molecule. • Evaluation of the toxicity of the compound tested: a weight loss greater than or equal to 20% or the appearance of any lethality in connection with the compound is considered as an excessively toxic treatment. As examples, the results obtained with the compound N-[2-(2,1,3-benzothiadiazol-5-ylamino)-6-(2,6-dichlorophenyl)pyrido[2,3-d]pyrimidin-7-yl]-N′-(1,1-dimethyl-ethyl)-urea are given in the following Tables 1 to 7.
(§6) IV is understood to mean administration by the intravenous route.
The cell line KG-1 (AML) is described by Koeffler et al., Science 200: 1153-1154 (1978), and supplied by DSMZ ACC No. 14.

Kasumi1 tumours (AML) = assay: Antitumor activity in mice bearing Kasumi1 tumours (AML); conditions: days 25-31, 33, 34, P 178 mg
Description: as §1, §2, §3, §4, §5, §6

EOL-1 tumours (AML) = assay: Antitumor activity in mice bearing EOL-1 tumours (AML); conditions: days 8-10, 12-17, 19, total dose 300 mg/kg, P 133-146 mg
Description: as §1
as §2, with “administration. […]” for “administration.”
(§7) The volume of the tumors and its conversion into weight is estimated according to the formula: weight: (in mg)=(a×b^2)/2, where a and b are respectively the length and the width of the tumour (mm). The tumors are measured twice a week with calipers. […]
T is the median time in days for reaching a defined value (e.g. 1000 mg) in the treated group and C is the median time in days for reaching this same value in the control group. […] The median weight of the tumors of each treated group is then determined.

CTV1 tumours (AML) = assay: Antitumor activity in mice bearing CTV1 tumours (AML); conditions: 25 mg/kg/injection IV/IP, days 17-23, 25-26/28-32, total dose 350 mg/kg, P 100 mg
Description: as §1
as §2, with “administration. […]” for “administration.”
as §7
Two parameters for estimation of antitumor activity are used: log10 of the cells killed (Log cell kill) and T/C. • Calculation of log10 of the cells killed=(T−C)/3.32×Td, where (T−C) is the delay in tumour growth and Td the volume (and weight) doubling time of the tumour (expressed in days). […] The median weight of the tumors of each treated group is then determined. […]

K562 tumours (CML) = assay: Antitumor activity in mice bearing K562 tumours (CML); conditions: 25 mg/kg/injection IV/IP, days 4-11/12-25, total dose 550 mg/kg
Description: as §1, §2, §3, §4
(§8) Two parameters for estimation of antitumor activity are used: log10 of the cells killed (Log cell kill) and T/C. • Calculation of log10 of the cells killed=(T−C)/3.32×Td, where (T−C) is the delay in tumour growth and Td the volume (and weight) doubling time of the tumour (expressed in days). […] A value of log10 of the cells killed >2.8 is indicative of a very high antitumor activity of the molecule (J Liang et al, Invest New Drugs 2005; 23(3):213-24). • Calculation of T/C: the treated groups and the control groups are evaluated when the tumors of the control group reach approximately 1000 mg (median value of the group). The median weight of the tumors of each treated group is then determined. […]

CMLT1 tumours (CML) = assay: Antitumor activity in mice bearing CMLT1 tumours (CML); conditions: 20 mg/kg/injection IV/IP, days 3-7/10-14, 17-21, total dose 300 mg/kg
Description: as §1, §2, §3, §4, §8

[1] = 17 mg/kg/injection IV, days 19-38, total dose 255 mg/kg, P 127-130 mg

CC(C)(C)NC(=O)Nc1nc2nc(Nc3ccc4nsnc4c3)ncc2cc1-c1c(Cl)cccc1Cl [N-[2-(2,1,3-benzothiadiazol-5-ylamino)-6-(2,6-dichlorophenyl)pyrido[2,3-d]pyrimidin-7-yl]-N′-(1,1-dimethylethyl)-urea]
T/C at 22 days (KG1a tumors (AML); 17 mg/kg/injection IV/IP, days 5-13, 15/16, 18-20, 22, 24-26, 29, 31, total dose 340 mg/kg, P 91-98 mg, DMSO 5% Tween80 10% H2O 85%): 0% | Log10 cells killed (KG1a tumors (AML); 17 mg/kg/injection IV/IP, days 5-31, total dose 340 mg/kg, P 91-98 mg, DMSO 5% Tween80 10% H2O 85%): >>6 | Log10 cells killed (KG1a tumors (AML); 25 mg/kg IV days 22-30 then 40 x 2 mg/kg oral days 31-44, total dose 225/1120 mg/kg, P 1000 mg, DMSO 5% Tween80 10% H2O 85%): >>6 | Log10 cells killed (KG1a tumors (AML); 40 x 2 mg/kg (2 administrations per treatment day) oral, days 15-44, total dose 2400 mg/kg, P 147 mg): 3.0 | T/C at 22 days (KG1a tumors (AML); 40 x 2 mg/kg (2 administrations per treatment day) oral, days 15-44, total dose 2400 mg/kg, P 147 mg, DMSO 5% Tween80 10% H2O 85%): 14.9% | tumour weight at the end of second treatment period (tumors no longer measurable) (KG1a tumors (AML); after IV days 22-30 (25 mg/kg) then oral route day 31 until day 44, P 1000 mg): < 63 mg | TFS (tumour-free survival) (KG1a tumors (AML); on day 120, 17 mg/kg/injection IV/IP, days 5-31, total dose 340 mg/kg, P 91-98 mg): 80% on | reduction in the tumour weight (KG1a tumors (AML); tumors at very advanced stage (1000 mg), IV route days 22 to 30 at 25 mg/kg): 80% | T/C at 28 days (KG1 tumours (AML); 17 mg/kg/injection IV, days 19-28, 30, 32, 34, 36, 38, total dose 255 mg/kg, P 127-130 mg, DMSO 5% Tween80 10% H2O 85%): 0% | Log10 cells killed (KG1 tumours (AML); [1]): >6 | TFS (tumour-free survival) (KG1 tumours (AML); [1]): (100%) | T/C at 28 days (KG1 tumours (AML); 40 x 2 mg/kg (2 administrations per treatment day) oral, days 18-24, 26, 28, 30, 32, 34, 36, 38, 40, total dose 1200 mg/kg, P 130-132 mg, Labrasol 21% Solutol 5% HCl 0.001N 74%): 0% | Log10 cells killed (KG1 tumours (AML); 40 x 2 mg/kg oral, days 18-40, total dose 1200 mg/kg, P 130-132 mg): 4.3 | T/C at 28 days (Kasumi1 tumours (AML); 15 x 2 mg/kg (two administrations per treatment day) IV, total dose 255 mg/kg, PEG400 22% Solutol 5% G5 73%): 20% | Log10 cells killed (Kasumi1 tumours (AML); 15 x 2 mg/kg IV, total dose 255 mg/kg): 3 | T/C at 28 days (Kasumi1 tumours (AML); 40 x 2 mg/kg (two administrations per treatment day) oral, total dose 680 mg/kg, Labrasol 21% Solutol 5% HCl 0.001N 74%): 17.5% | Log10 cells killed (Kasumi1 tumours (AML); 40 x 2 mg/kg oral, total dose 680 mg/kg): 2.4 | T/C at 14 days (EOL-1 tumours (AML); 15 x 2 mg/kg (2 administrations per treatment day) IP, PEG400 22% Solutol 5% G5 73%): 5.7% | Log10 cells killed (EOL-1 tumours (AML); 15 x 2 mg/kg IP): 3.1 | Log10 cells killed (CTV1 tumours (AML)): 1.7 | T/C at 25 days (CTV1 tumours (AML); PEG400 22% Solutol 5% G5 73%): 1.6% | Log10 cells killed (K562 tumours (CML); P 63-80 mg): 4.2 | T/C at 28 days (K562 tumours (CML); P 63-80 mg, DMSO 5% Tween80 10% H2O 85%): 0% | TFS (tumour-free survival) (K562 tumours (CML); on day 130): (43% | Log10 cells killed (CMLT1 tumours (CML); P palpable ~30 mg): 1.5 | T/C at 22 days (CMLT1 tumours (CML); P palpable ~30 mg, DMSO 5% Tween80 10% H2O 85%): 1% | TFS (tumour-free survival) (CMLT1 tumours (CML); on day 42): (50%
